Key:
Type in all cases: cell-based
[1] = tested on: Enterococcus faecalis (NCIMB 13280); assay: Photobactericidal efficacy, minimum bactericidal concentration; details: 10^6 cfu/ml, 1 hour at 37° C. with photosensitiser, illuminated twenty minutes, LEDs 660 nm, 6.2 J cm^-2; table does not say light or dark
Experimental: (§1) The photobactericidal efficacies of the compounds of examples 2a to 2d in addition to that of the known photosensitiser methylene blue were measured against both Gram positive Staphylococcus aureus (NCTC 6571), Enterococcus faecalis (NCIMB 13280) and Propionibacterium acnes (NCTC 737) and Gram negative Escherichia coli (NCTC 10418), Proteus mirabilis (NCIMB 5887) and a clinical strain of Pseudomonas aeruginosa bacteria. Propionibacterium acnes was grown in reinforced clostridial medium. All other strains were grown in Mueller-Hinton Broth and then diluted to a concentration of 10^6 colony-forming units/ml. Aliquots of the strains were then incubated for 1 hour at 37° C. in microtitre trays with various concentrations of photosensitiser in doubling dilutions from 100 μM, with zero photosensitiser concentrations in each case for control purposes. The trays were then either illuminated for twenty minutes using an array of light-emitting diodes (660 nm) giving a light dose of 6.2 J cm^−2 or alternatively foil-covered to provide dark controls. From each well showing an inhibition of growth of the micro-organism, 1 μl was sub-cultured on nutrient agar, using the Miles-Misra method, and incubated for 18 hours at 37° C. The minimum bactericidal concentrations were then determined as the lowest concentration for each photosensitiser giving no bacterial growth.

[2] = tested on: Escherichia coli (NCTC 10418); assay: as above; details: NCTC10418, 10^6 cfu/ml, 1 hour at 37° C. with photosensitiser, illuminated twenty minutes, LEDs 660 nm, 6.2 J cm^-2, table does not say light or dark, read-out: minimum concentration needed to achieve the antibacterial activity (minimum bactericidal concentration), E. coli
Experimental: as §1

[3] = tested on: Propionibacterium acnes (NCTC 737); assay: as above; details: Cutibacterium acnes, NCTC737; reinforced clostridial medium, 1 hour at 37° C. with photosensitiser, illuminated twenty minutes, LEDs 660 nm, 6.2 J cm^-2; table does not say light or dark; read-out: minimum concentration needed to achieve the antibacterial activity (minimum bactericidal concentration), Prop. acnes
Experimental: as §1

[4] = tested on: Proteus mirabilis (NCIMB 5887); assay: as above; details: 10^6 cfu/ml, 1 hour at 37° C. with photosensitiser, illuminated twenty minutes, LEDs 660 nm, 6.2 J cm^-2; table does not say light or dark
Experimental: as §1

[5] = tested on: Staphylococcus aureus (NCTC 6571); assay: as above; details: NCTC6571, 10^6 cfu/ml, 1 hour at 37° C. with photosensitiser, illuminated twenty minutes, LEDs 660 nm, 6.2 J cm^-2, table does not say light or dark, read-out: minimum concentration needed to achieve the antibacterial activity (minimum bactericidal concentration), S. aureus
Experimental: as §1

[6] = tested on: clinical strain of Pseudomonas aeruginosa; assay: as above; details: 10^6 cfu/ml, 1 hour at 37° C. with photosensitiser, illuminated twenty minutes, LEDs 660 nm, 6.2 J cm^-2, table does not say light or dark
Experimental: as §1

[7] = tested on: Candida albicans (NCPF 8179); assay: Antifungal screening, minimum concentration; details: Sabouraud broth and agar, carried out similarly: illuminated twenty minutes, LEDs 660 nm, 6.2 J cm^-2; table does not say light or dark
Experimental: as §1
Antifungal screening was carried out similarly against the yeast Candida albicans (NCPF 8179), using Sabouraud broth and agar.

| SMILES | minimum concentration needed to achieve the antibacterial activity (minimum bactericidal concentration), Enterococcus facecalis [1] [µM] | MBC [2] [µM] | MBC [3] [µM] | minimum concentration needed to achieve the antibacterial activity (minimum bactericidal concentration), Proteus mirabilis [4] [µM] | MBC [5] [µM] | minimum concentration needed to achieve the antibacterial activity (minimum bactericidal concentration), Pseudomonas Aeruginosa [6] [µM] | minimum concentration needed to achieve the antifungal activity, Candida albicans [7] [µmol/L] |
| --- | --- | --- | --- | --- | --- | --- | --- |
| CCc1cc2nc3ccc(N(C)C)cc3[s+]c2cc1N [Compound 2a] | 1.35 | 1.47 | 0.78 | 5.50 | 3.13 | 3.13 | 3.13 |
| CCCc1cc2nc3ccc(N(C)C)cc3[s+]c2cc1N [Compound 2b, 3-Amino-7-(dimethylamino)-2-n-propylphenothiazinium hydrogensulphate] | 0.33 | 1.32 | 0.78 | 5.32 | 3.13 | 0.78 | 0.78 |
| CN(C)c1ccc2nc3cc(C(C)(C)C)c(N)cc3[s+]c2c1 [Compound 2c, 3-Amino-2-tert-butyl-7-(dimethylamino)phenothiazinium hydrogensulphate] | – | 3.13 | 0.78 | – | 3.13 | 0.39 | 3.13 |
| CN(C)c1ccc2nc3cc(-c4ccccc4)c(N)cc3[s+]c2c1 [Compound 2d, 3-Amino-7-(dimethylamino)-2-phenylphenothiazinium hydrogensulphate] | – | 3.13 | – | – | 3.13 | – | 0.78 |
| Cc1cc2c(cc1N)=[SH]c1cc(N(C)C)ccc1N=2 [toluidine blue, Toluidine blue] | 7.36 | – | – | 14.71 | – | 7.36 | 12.5 |

— US20120328530A1, “TOLUIDINE BLUE DERIVATIVES AS PHOTOSENSITISING COMPOUNDS” (PHARMALUCIA LIMITED, priority 2010, published 2012)
